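All cell lines were grown in 96-well plates and treated with compound for 48 hours. The concentration for 50% growth inhibition is given as GI50. TGI marks complete inhibition of growth.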
Experiments:
Assay in all cases: inhibition of tumour cell growth, NCI panel, 48 h
HCT-15 colon = tested on: HCT-15 colon
SK-MEL-5 melanoma = tested on: SK-MEL-5 melanoma
SW-620 colon = tested on: SW-620 colon
NCI-H522 lung = tested on: NCI-H522 lung
NCI-H460 lung = tested on: NCI-H460 lung
TK-10 renal = tested on: TK-10 renal
MOLT-4 leukemia = tested on: MOLT-4 leukemia
DU-145 prostate = tested on: DU-145 prostate
SN12C renal = tested on: SN12C renal
NCI-H23 lung = tested on: NCI-H23 lung
SK-MEL-2 melanoma = tested on: SK-MEL-2 melanoma

Structure (SMILES)	TGI (HCT-15 colon) [µM]	TGI (SK-MEL-5 melanoma) [µM]	TGI (SW-620 colon) [µM]	TGI (NCI-H522 lung) [µM]	TGI (NCI-H460 lung) [µM]	TGI (TK-10 renal) [µM]	TGI (MOLT-4 leukemia) [µM]	TGI (DU-145 prostate) [µM]	TGI (SN12C renal) [µM]	TGI (NCI-H23 lung) [µM]	TGI (SK-MEL-2 melanoma) [µM]	GI50 (SK-MEL-2 melanoma) [µM]	GI50 (HCT-15 colon) [µM]	GI50 (SK-MEL-5 melanoma) [µM]	GI50 (SW-620 colon) [µM]	GI50 (NCI-H460 lung) [µM]	GI50 (TK-10 renal) [µM]	GI50 (MOLT-4 leukemia) [µM]	GI50 (DU-145 prostate) [µM]	GI50 (NCI-H23 lung) [µM]
CCc1c2cc(OC)c(OC)cc2cc2c3cc(OC)c(OC)cc3cc[n+]12 (tested in a mixture with another compound)	> 61.7	48.9	75.8	34.3	> 76	> 100	> 100	> 54.8	> 79.9	60.5	87.1									
COc1ccc(NC(=S)NNC(=O)c2nsc3ccccc23)cc1	> 100	> 100	> 100		> 100	> 100	87.8		> 100	> 100	90.8									
OC(c1ccc(Cl)cc1)(c1ccc(Cl)cc1)c1cncnc1	39.8	27	55.4		36.4	57.5	52.3	59.8	80.3	61.6	32									
Cc1cn(C2C=CC(COP(=O)(OCc3ccc([N+](=O)[O-])o3)N(C)CCCCCl)O2)c(=O)[nH]c1=O (stereo not drawn)	35.7	3.26	27.1	3.97	23.6	34.3	26.4	26.1	23.2	10.7	12.9									
CCCCN(CCCC)CCC(O)c1cc(-c2ccc(C(F)(F)F)cc2)nc(-c2ccc(C(F)(F)F)cc2)c1 (stereo not drawn)	> 100		> 100	> 100	> 100	> 100	> 100	> 100	> 100	> 100	> 100									
O=C1CCCC/C1=C1/SC(=Nc2ccccc2)C(=Nc2ccccc2)N1c1ccccc1	> 100			> 100	> 100		> 100	> 100	> 100	> 100	> 100									
COC1CC(OC2CCC3(C)C(=CCC4C3C(OC(C)=O)C(OC(=O)CC(C)C)C3(C)C(C(C)=O)CCC43O)C2)OC(C)C1OC1CC(OC)C(OC2CC(OC)C(OC3OC(C)C(O)C(OC)C3O)C(C)O2)C(C)O1 (stereo not drawn)	> 100	42.7	94.7	> 100	> 100	> 100	45.6	> 100	> 100	> 100	93.3									
Clc1cc2ccccc2c2ccccc12	> 100	> 100	> 100	> 100	> 100	> 100	> 100	> 100	> 100	> 100	73.3									
O=NN1C(c2ccccc2)C2CCCC(C2=O)C1c1ccccc1 (stereo not drawn)	> 87.7	35.7	> 100	46.4	48.3		> 78.1		69.9	48.3	40.5									
NC1C=NNC1=O (stereo not drawn)	> 100	> 100	> 100	> 100		> 100	> 100		> 100	> 100	> 100									
O=C(Nn1c(-c2cccs2)nc2ccc(I)cc2c1=O)c1ccccc1	> 100	76.8	> 100	59.5	> 100	63.1	> 100	46.7	> 100	67.4	69.4	24								
Clc1ccc(C2CC(c3cccc(Nc4ccncc4)c3)=NN2c2ccc(Cl)cc2)cc1 (stereo not drawn)	2.95	3.15	3.6		3.61	3.5	5.52	3.49		3.49			1.55	1.74	1.8	1.86	1.87	2.18	1.88	1.83
O=C(O)C1OC1C(=O)O (stereo not drawn)	> 100	> 100	> 100	> 100	> 100	> 100		> 100	> 100	> 100	> 100									
C[C@]12Cc3cnc(-c4ccccc4)nc3C[C@@H]1CC[C@@H]1[C@@H]2CC[C@@]2(C)[C@H]1CC[C@]2(C)O	> 63.2	42.9	> 100	31.2	39.4	39.1	> 100	44.1	57.3	47.3	58.3									
CC(C)=Cc1cc(C)c2c3c(c(O)c(O)c(C)c13)C(C)=CC2=O	51.3	35	> 100	41.2	55.9		54.7	89	> 100	64.5	44.2									
CN(CCO)Cc1ncccc1O	> 100	> 100	> 100	> 100	> 100	> 100	89.5	> 100		> 100	> 100									
O=S(=O)(O)c1cc(S(=O)(=O)O)c2cc(N=Nc3c(O)ccc4ccccc34)ccc2c1	> 100	> 100	> 100	> 100		> 100	> 100	> 100	> 100	> 100	> 100									
CN1CC(c2ccccc2)C(O)(C2(c3ccccc3)CN(C)CC(c3ccccc3)C2=O)C(c2ccccc2)C1 (stereo not drawn)	> 100	> 100	> 100	> 100	> 100	> 100	> 100	> 100	> 100	> 100	> 100									
Nc1c(OCC(=O)O)ccc2cc(S(=O)(=O)O)ccc12	> 100	> 100	> 100	> 100	> 100	> 100		> 100	> 100	> 100	> 100									
CCC1C(C#N)=C(O)NC(O)=C1C#N	> 100	> 100	> 100	> 100	> 100	> 100			> 100	> 100	> 100									
COc1ccc(C(=O)NC2=C(Cl)C(=O)c3ccccc3C2=O)cc1	11	4.59	3.45	1.49	13.7	7.7	> 22	15.2	9.46	6.05	3.13									
CC1C2CCC3C(O)C2(CC(O)C2(O)C1CC(O)C2(C)C)CC3(C)O (stereo not drawn)	> 100	> 100	> 100	> 100	> 100	> 100		> 100	> 100	> 100	> 100									
CCOC(=O)c1nc2ccccc2n(CC)c1=O	> 100	> 100	> 100	> 100	> 100	> 100	> 100	> 100	> 100	> 100	> 100									
CN(C)CCCNc1ccc2nnn3c4ccc(OC(=O)c5ccccc5)cc4c(=O)c1c23	33.7		21.2	10.5	25.2	24.3	9.41	22.9	25.4	32.2	32.9									
c1cc(-c2ccc(-c3nc4ccc(C5=NCCN5)cc4s3)s2)ccc1C1=NCCN1	16.6		> 100			2.42	0.879	0.677		> 100	2.96									
CO/N=C(/C)c1cccc(Nc2nc3ccc(Cl)cc3c3[nH]c4ccccc4c23)c1	27.1	16.9	21.8	13.4	18.8		7.91	24.9	25.9	28.5	26.9									
O=C(O)CCO/N=C1/C(c2c(O)[nH]c3ccccc23)=Nc2ccccc21	42.3	27.3	> 100	> 100	> 100	> 100	77.2	75.1	> 100	66.5	37.7									
